# PubChem BioAssay AID1845208 (Molecular Pharmacology Branch, DTP, NCI, 2023)
# System: NCI-H196 SCLC complex tumor spheroid viability
# Experiment: Anticancer human tumor NCI-H196 cell line growth inhibition;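 further: spheroids exposed to compounds for 7 days before readout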;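 on viability, T/C: 100% = DMSO vehicle control wells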
# Details: for IC50: curve of first compound; for viability, T/C: stronger effect = lower value
# From the text: Multicellular complex tumor spheroid response to DNA repair inhibitors in combination with DNA-damaging drugs
# This study explores the anticancer activities of DNA-damaging drugs and inhibitors of DNA damage repair, both as single agents and in combinations. Complex tumor spheroids comprised of malignant cells, endothelial cells and mesenchymal stem cells served as an in vitro model for human solid tumors. This model system incorporates physiologically relevant features and patient-derived or established malignant cell lines with clinically relevant genetic alterations from many tumor types. Twenty-six patient-derived or established malignant cell lines were evaluated representing sarcoma, melanoma, small cell lung cancer (SCLC), non-small cell lung cancer (NSCLC), as well as bladder, ovarian and pancreatic cancers. The concentration ranges selected for each drug and investigational agent were based upon clinically achievable concentrations if the clinical Cmax of the agent was known.
# Compounds. The drugs and compounds olaparib (NSC753686), talazoparib (NSC767125), berzosertib (NSC777718), elimusertib (NSC800525), nedisertib (NSC802822), VX-984 (NSC792969), AZD-1390 (NSC803789), temozolomide (NSC362856), topotecan (NSC609699), trabectedin (NSC813783), staurosporine (NSC755774), and gemcitabine (NSC613327) were obtained from the National Cancer Institute (NCI) Developmental Therapeutics Program Chemical Repository. The FDA-approved anticancer drug set is available from the Developmental Therapeutics Program at https://dtp.cancer.gov/organization/dscb/obtaining/available_plates.htm. […] The stock solutions were prepared in dimethyl sulfoxide (DMSO, Sigma-Aldrich, St. Louis, MO, cat. D2650) at 400-fold the tested concentration and stored at -70 degrees C. Prior to their use, the stock solutions were diluted in fresh medium and the final DMSO concentration in the assay was 0.25% (v/v). All drugs and investigational agents were tested over a range starting from a high concentration at or near the clinical Cmax and decreasing in half-log increments. If the clinical Cmax for an agent had not been determined, the highest concentration tested was 10 microM.
# Cell Lines. The patient-derived cancer cell (PDC) lines: 156681-154-R-J1-PDC, 283228-195-R-J1-PDC, 287954-098-R-J1-PDC, 292921-168-R-J2-PDC, 349418-098-R-PDC, 425362-245-T-J1-PDC, 556581-035-R-J1-PDC, and BL0293-F563-PDC were received from the NCI Patient-Derived Models Repository (PDMR, https://pdmr.cancer.gov). The established cell lines HS-SY-2 (RRID:CVCL_8719), MPNST, and SYO-1 (RRID:CVCL_7146) were obtained from the Sloan Kettering Institute. The alveolar soft parts sarcoma cell line ASPS-1 (RRID:CVCL_S738) was established at the NCI and grown from internal seed stocks. The following established cell lines were purchased from the American Type Culture Collection (ATCC, Manassas, VA): G-401 (ATCC, cat. CRL-1441, RRID:CVCL_0270), SW982 (ATCC, cat. HTB-93, RRID:CVCL_1734), VA-ES-BJ (ATCC, cat. CRL-2138, RRID:CVCL_1785), NCI-H719 (ATCC, cat. CRL-5837, RRID:CVCL_1582), NCI-H196 (ATCC, cat. CRL-5823, RRID:CVCL_1509), NCI-H841 (ATCC, cat. CRL-5845, RRID:CVCL_1595), NCI-H1618 (ATCC, cat. CRL-5879, RRID:CVCL_1480), NCI-H1876 (ATCC, cat. CRL-5902, RRID:CVCL_1503), DMS 114 (ATCC, cat. CRL-2066; RRID:CVCL_1174), NCI-H211 (ATCC, cat. CRL-5824; RRID:CVCL_1529), and SW 1271 (ATCC, cat. CRL-2177, RRID:CVCL_1716). The small cell lung cancer cell line COR-L88 was purchased from Sigma-Aldrich (cat. 92031917-1VL, RRID:CVCL_1141). The non-small cell lung cancer cell lines NCI-H226 (RRID:CVCL_1544) and NCI-H322M (RRID:CVCL_1557) were established at the NCI and grown from internal seed stocks. Pooled donor human umbilical vein endothelial cells (HUVEC, Lonza, cat. CC-2519) and human mesenchymal stem cells (hMSC, Lonza, cat. PT-2501) were purchased from Lonza (Walkersville, MD).
# Cell Culture. All cells were maintained in an incubator at 37 degrees C and 5% CO2 with 95% humidity. […]
# [1] = second compound 0.003 µM, first compound 0.00949 µM
# [2] = second compound 0.003 µM, first compound 0.03 µM
# [3] = second compound 0.003 µM, first compound 0.0949 µM
# [4] = second compound 0.003 µM, first compound 0.3 µM
# [5] = second compound 0.003 µM, first compound 0.949 µM
# [6] = second compound 0.003 µM, first compound 3 µM
# [7] = second compound 0.00949 µM, first compound 0.00949 µM
# [8] = second compound 0.00949 µM, first compound 0.03 µM
# [9] = second compound 0.00949 µM, first compound 0.0949 µM
# [10] = second compound 0.00949 µM, first compound 0.3 µM
# [11] = second compound 0.00949 µM, first compound 0.949 µM
# [12] = second compound 0.00949 µM, first compound 3 µM
# [13] = second compound 0.03 µM, first compound 0.00949 µM
# [14] = second compound 0.03 µM, first compound 0.03 µM
# [15] = second compound 0.03 µM, first compound 0.0949 µM
# [16] = second compound 0.03 µM, first compound 0.3 µM
# [17] = second compound 0.03 µM, first compound 0.949 µM
# [18] = second compound 0.03 µM, first compound 3 µM
# [19] = second compound 0.0949 µM, first compound 0.00949 µM
# [20] = second compound 0.0949 µM, first compound 0.03 µM
# [21] = second compound 0.0949 µM, first compound 0.0949 µM
# [22] = second compound 0.0949 µM, first compound 0.3 µM
# [23] = second compound 0.0949 µM, first compound 0.949 µM
# [24] = second compound 0.0949 µM, first compound 3 µM
# [25] = second compound 0.3 µM, first compound 0.00949 µM
# [26] = second compound 0.3 µM, first compound 0.03 µM
# [27] = second compound 0.3 µM, first compound 0.0949 µM
# [28] = second compound 0.3 µM, first compound 0.3 µM
# [29] = second compound 0.3 µM, first compound 0.949 µM
# [30] = second compound 0.3 µM, first compound 3 µM
Compound,IC50 (second compound 0.003 µM) [µM],IC50 (second compound 0.00949 µM) [µM],IC50 (second compound 0.03 µM) [µM],IC50 (second compound 0.0949 µM) [µM],IC50 (second compound 0.3 µM) [µM],"viability, T/C [3] [%]","viability, T/C [4] [%]","viability, T/C [5] [%]","viability, T/C [6] [%]","viability, T/C [9] [%]","viability, T/C [10] [%]","viability, T/C [11] [%]","viability, T/C [12] [%]","viability, T/C [15] [%]","viability, T/C [16] [%]","viability, T/C [17] [%]","viability, T/C [18] [%]","viability, T/C [21] [%]","viability, T/C [22] [%]","viability, T/C [23] [%]",also measured
CNCc1ccc(-c2cc(-c3nc(-c4ccc(S(=O)(=O)C(C)C)cc4)cnc3N)on2)cc1 + CC[C@@]1(O)C(=O)OCc2c1cc1n(c2=O)Cc2cc3c(CN(C)C)c(O)ccc3nc2-1,> 3,> 3,> 3,> 3,> 3,101,94.3,86.2,76.1,112,95.7,84.1,78.7,101,93.2,76.9,81.6,121,88.7,89.3,"viability, T/C [1]: 101%; viability, T/C [2]: 102%; viability, T/C [7]: 98.5%; viability, T/C [8]: 99%; viability, T/C [13]: 101%; viability, T/C [14]: 101%; viability, T/C [19]: 99.9%; viability, T/C [20]: 104%; viability, T/C [24]: 75.1%; viability, T/C [25]: 94.9%; viability, T/C [26]: 93.7%; viability, T/C [27]: 92.7%; viability, T/C [28]: 75%; viability, T/C [29]: 65%; viability, T/C [30]: 57.1%"
Cn1ncnc1[C@H]1c2n[nH]c(=O)c3cc(F)cc(c23)N[C@@H]1c1ccc(F)cc1 + CC[C@@]1(O)C(=O)OCc2c1cc1n(c2=O)Cc2cc3c(CN(C)C)c(O)ccc3nc2-1,> 3,> 3,> 3,> 3,> 3,96.9,95.3,95,98.2,95.5,105,104,102,113,108,104,97.4,105,110,106,"viability, T/C [1]: 97.6%; viability, T/C [2]: 90.2%; viability, T/C [7]: 96.5%; viability, T/C [8]: 87.7%; viability, T/C [13]: 104%; viability, T/C [14]: 110%; viability, T/C [19]: 108%; viability, T/C [20]: 108%; viability, T/C [24]: 96.8%; viability, T/C [25]: 99.1%; viability, T/C [26]: 99.9%; viability, T/C [27]: 91%; viability, T/C [28]: 95.3%; viability, T/C [29]: 91.2%; viability, T/C [30]: 82.5%"
O=C(c1cc(Cc2n[nH]c(=O)c3ccccc23)ccc1F)N1CCN(C(=O)C2CC2)CC1 + CC[C@@]1(O)C(=O)OCc2c1cc1n(c2=O)Cc2cc3c(CN(C)C)c(O)ccc3nc2-1,> 30,> 30,> 30,> 30,> 30,95.4,95.2,88.3,88.2,97.7,91.3,98.7,95.9,100,98,101,103,96.3,107,99.6,"viability, T/C (second compound 0.003 µM, first compound 9.49 µM): 88.6%; viability, T/C (second compound 0.003 µM, first compound 30 µM): 85.6%; viability, T/C (second compound 0.00949 µM, first compound 9.49 µM): 94.3%; viability, T/C (second compound 0.00949 µM, first compound 30 µM): 96.6%; viability, T/C (second compound 0.03 µM, first compound 9.49 µM): 98.2%; viability, T/C (second compound 0.03 µM, first compound 30 µM): 92%; viability, T/C [24]: 99.6%; viability, T/C (second compound 0.0949 µM, first compound 9.49 µM): 102%; viability, T/C (second compound 0.0949 µM, first compound 30 µM): 97.2%; viability, T/C [27]: 86.8%; viability, T/C [28]: 90.9%; viability, T/C [29]: 88.4%; viability, T/C [30]: 93.9%; viability, T/C (second compound 0.3 µM, first compound 9.49 µM): 82.5%; viability, T/C (second compound 0.3 µM, first compound 30 µM): 83.1%"
